The results in this text go back to BindingDB's records for doi:10.1016/S0960-894X(97)10006-3 (1997).

The term IC50 denotes the concentration that gives 50% inhibition.

A short description of this assay: Binding affinity for DHP (Dihydropyridine) site of L-type calcium channel of calf heart in the resting state.
In the case of `CCOC(=O)C1=C(C)NC(C)=C(C#N)[C@@H]1c1cnccc1-c1cccc2ccccc12`, the IC50 was 270 nM.
With `CCOC(=O)C1=C(C)NC(C)=C(C#N)[C@@H]1c1cnccc1-c1ccc2ccccc2c1`, the half-maximal inhibitory concentration (IC50) is 100 nM.
Turning to `CCOC(=O)C1=C(C)NC(C)=C(C#N)[C@@H]1c1cnccc1-c1ccccc1`, the IC50 is 250 nM.
